Reference: US20250082598A1, “Melafenoxate, 2-(1-adamantylamino)ethyl 2-(4-chlorophenoxy)acetate and derivatives thereof for treating circadian rhythm sleep disorders with neurodegenerative diseases such as Alzheimer's disease” (NLS Pharmaceutics AG, priority 2021, published 2025)

Target: T1, RXFP3 (h) (Homo sapiens, UniProt Q9NSD7)
T1 sequence (Q9NSD7 1-469): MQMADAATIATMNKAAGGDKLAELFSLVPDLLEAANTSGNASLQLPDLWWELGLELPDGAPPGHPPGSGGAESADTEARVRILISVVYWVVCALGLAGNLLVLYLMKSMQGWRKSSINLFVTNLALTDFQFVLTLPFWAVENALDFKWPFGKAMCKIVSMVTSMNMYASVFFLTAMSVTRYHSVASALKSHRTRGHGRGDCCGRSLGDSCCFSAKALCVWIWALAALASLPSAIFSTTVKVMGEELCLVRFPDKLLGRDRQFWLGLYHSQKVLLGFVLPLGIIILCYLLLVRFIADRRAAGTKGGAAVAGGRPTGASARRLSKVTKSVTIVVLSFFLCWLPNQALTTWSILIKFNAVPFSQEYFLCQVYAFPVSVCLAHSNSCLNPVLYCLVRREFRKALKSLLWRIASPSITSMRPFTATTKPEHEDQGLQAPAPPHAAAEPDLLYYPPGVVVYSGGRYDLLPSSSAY
Test: RXFP3 assay (Eurofins/LeadHunter, cAMP Hunter GPCR Biosensor)
Assay type: cell-based
Procedure: Melafenoxate is found to weakly bind with RXFP3 and RXFP4 receptors (Study FR095-0024749-Q Eurofins/leadHunter Jun. 25, 2021; unpublished data).
In these assays' compounds were tested in agonist and antagonist mode with the GPCR Biosensor Assays and match to this design:
• 1. CAMP Hunter cell lines were expanded from freezer stocks according to standard procedures. • 2. Cells were seeded in a total volume of 20 μL into white walled, 384-well microplates and incubated at 37° C. for the appropriate time prior to testing. • 3. cAMP modulation was determined using the DiscoverX HitHunter CAMP XS+assay.
• 1. For agonist determination, cells were incubated with sample to induce response. • 2. Media was aspirated from cells and replaced with 15 μL 2:1 HBSS/10 mM Hepes: CAMP XS+ Ab reagent. • 3. […]
• 1. […] Microplates were read following signal generation with a PerkinElmer Envision™ instrument for chemiluminescent signal detection.
• 1. Compound activity was analyzed using CBIS data analysis suite (ChemInnovation, CA). • 2. For Gs agonist mode assays, percentage activity is calculated using the following formula:
% Activity=100%×(mean RLU of test sample−mean RLU of vehicle control)/(mean RLU of MAX control−mean RLU of vehicle control). • 3. For Gs positive allosteric mode assays, percentage modulation is calculated using the following formula: http://www.eurofinsdiscoveryservices.com Confidential Jun. […]

binding with RXFP3 receptor (in words): weakly bind
% Inhibition at 5*10^−5 M (5*10^−5 M): 29.1%
Structure (SMILES): O=C(COc1ccc(Cl)cc1)OCCNC12CC3CC(CC(C3)C1)C2 [Melafenoxate, 2-(1-adamantylamino)ethyl 2-(4-chlorophenoxy)acetate]
